# Like-named read-outs stand apart in the source and are kept apart here.
# How the values were obtained:
# Format in all cases: in vivo
# [1] = tested on: Stellaria media Villars; test: Foliar application test on Stellaria media Villars in upland field condition; conditions: day 28
# Text: (§1) Next, Test Examples of the herbicide compositions according to the invention will be presented. In the following Test Examples, the ingredient (A) was mixed with the ingredient (B), (C), (D), (E) or (F) in practice. […] The term “synergistic effect” means the effect achieved in the case where the effect achieved by two or more chemicals acting simultaneously exceeds the additive effect expected from the activities of the respective chemicals used solely.
# (§2) E=X+Y−(X×Y/100) Numerical formula 1
# (§3) (In the above formula, E represents an inhibitory rate expected in the case of applying a mixture of p kg/ha of a herbicide A and q kg/ha of another herbicide B. X represents the inhibitory rate achieved by the application of p kg/ha of the herbicide A. Y represents the inhibitory rate achieved by the application of q kg/ha of the herbicide B.)
# (§4) When the effect achieved by the mix application in practice exceeds the value E, the combination can be regarded as achieving a synergistic effect. Inhibitory rate was determined in accordance with the following numerical formula 2.
# (§5) Inhibitory rate(%)=(1−fresh weight in treated lot/fresh weight in untreated lot)×100 Numerical formula 2
# (§6) A resin vat having an area of 200 cm^2 was filled with upland soil that was diluvial clay loam soil. After fertilization, Stellaria media Villars and Matricaria inodora L. were sowed and the seeds were evenly covered with the soil. Then, the plants were grown under controlled conditions in a greenhouse. When the test weeds grew to the 2.0 to 2.5 leaf stage, each herbicide having been diluted at a definite concentration and mixed was uniformly sprayed to the foliage with a small-sized high pressure sprayer. […] As the preparation containing the ingredient (D) alone, marketed wettable granules were employed. As the preparation containing the ingredient (E) alone, a marketed flowable was employed. The mixed preparations were prepared by mixing the same. Then, the plants were grown under controlled conditions in the greenhouse.
# [2] = tested on: Matricaria inodora L.; test: Foliar application test on Matricaria inodora L. in upland field condition; conditions: day 28
# Text: as §1, §2, §3, §4, §5, §6
# [3] = tested on: Alopecurus myosuroides Huds.; test: Foliar application test on Alopecurus myosuroides Huds. in upland field condition; conditions: 672 h, fresh weight day 28, read-out: Inhibitory rate (%); for inhibition at 1000 g/ha: dose 1000 g a.i./ha; for inhibition at 2000 g/ha: dose 2000 g a.i./ha
# Text: Next, Test Examples of the herbicide compositions according to the invention will be presented. In the following Test Examples, the ingredient (A) was mixed with the ingredient (B), (C), (D), (E) or (F) in practice. As a result, an effect exceeding the effect expected from the effects achieved by using the individual ingredients solely (i.e., a synergistic effect) was observed. The term “synergistic effect” means the effect achieved in the case where the effect achieved by two or more chemicals acting simultaneously exceeds the additive effect expected from the activities of the respective chemicals used solely. The activity expected by using a specific combination of two herbicides (hereinafter called “expectation”) can be calculated in accordance with the following Colby's formula (refer to Colby, S. R., Weeds, 15, p. 20 to 22 (1967)).
# as §2, §3, §4, §5
# A resin vat having an area of 200 cm^2 was filled with upland soil that was diluvial clay loam soil. After fertilization, Alopecurus myosuroides Huds. was sowed and the seeds were evenly covered with the soil. Then, the plants were grown under controlled conditions in a greenhouse. When the test weeds grew to the 2.0 to 2.5 leaf stage, each herbicide having been diluted at a definite concentration and mixed was uniformly sprayed to the foliage with a small-sized high pressure sprayer. The preparation containing the ingredient (A) alone was prepared in accordance with Formulation Example 1 but adding diatomaceous earth to compensate for the decrease in the ingredient (B), (C) or (F). As the preparations respectively containing the ingredients (B) and (C) alone, marketed flowables were employed. As the preparation containing the ingredient (F) alone, a marketed emulsifiable concentrate was employed. The mixed preparations were prepared by mixing the same. Then, the plants were grown under controlled conditions in the greenhouse. On the day 28 after the application, the fresh weight of the above-ground part of each weed was measured and the inhibitory rate (%) was determined in accordance with Numerical Formula 2 and the expectation was calculated in accordance with Numerical Formula 1, Tables 2 and 3 show the results.
# [4] = Table 5, single ingredient, dose 2 g a.i./ha
# [5] = Table 5, single ingredient, dose 4 g a.i./ha
# [6] = Table 4, single ingredient, dose 5 g a.i./ha
# [7] = Table 4, single ingredient, dose 10 g a.i./ha
compound,measurement,setting,value
"COc1ncc(F)c2nc(S(=O)(=O)Nc3c(F)cccc3F)nn12 [(E), florasulam]",Inhibitory rate (%),[1]; [4],75%
same,Inhibitory rate (%),[1]; [5],90%
same,Inhibitory rate (%),[2]; [4],70%
same,Inhibitory rate (%),[2]; [5],80%
"CC(C)c1ccc(NC(=O)N(C)C)cc1 [(B), isoproturon]",inhibition at 1000 g/ha,"[3]; Table 2, single ingredient",69%
same,inhibition at 2000 g/ha,"[3]; Table 2, single ingredient",90%
"CCC(CC)Nc1c([N+](=O)[O-])cc(C)c(C)c1[N+](=O)[O-] [(C), pendimethalin]",inhibition at 1000 g/ha,"[3]; Table 2, single ingredient",16%
same,inhibition at 2000 g/ha,"[3]; Table 2, single ingredient",22%
"CCCN(CCC)c1c([N+](=O)[O-])cc(C(F)(F)F)cc1[N+](=O)[O-] [(F), trifluralin]",inhibition at 1000 g/ha,"[3]; Table 3, single ingredient",55%
same,inhibition at 2000 g/ha,"[3]; Table 3, single ingredient",85%
"COC(=O)c1ccc(C(F)(F)F)nc1S(=O)(=O)[N-]C(=O)Nc1nc(OC)cc(OC)n1.[Na+] [(D), sodium salt of flupyrsulfuron-methyl]",Inhibitory rate (%),[1]; [6],77%
same,Inhibitory rate (%),[1]; [7],85%
same,Inhibitory rate (%),[2]; [6],46%
same,Inhibitory rate (%),[2]; [7],67%
